Results reported in the supplement of paper PMC5579334.
± gives the standard deviation of the averaged measurements.

Columns and labels:
HS-PSS [1] = experiment: drug sensitivity score (DSS, CellTiter-Glo viability, 72 h) (DSS (dimensionless)); higher = more sensitive; extreme values may be limits of the assay
In short: (§1)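 MPNST cell lines and primary human Schwann cells (750–1000 cells per well) went into 384-well plates preprinted with each compound at five concentrations in 10-fold steps. Plates were incubated 72 h at 37 °C, 5% CO2. Viability was read as CellTiter-Glo ATP luminescence, scaled between vehicle and positive-control wells, with duplicates averaged where present. Percent inhibition is at the top concentration; drug sensitivity score and relative IC50 (censored at top concentration) come from four-parameter logistic fits.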

HS-Sch-2 [2] = experiment: as above
In short: as §1

[3] = tested on: HSC1 (primary human Schwann cells); experiment: as above
In short: as §1

[4] = tested on: HSC2 (primary human Schwann cells); experiment: as above
In short: as §1

S1507-2 [5] = experiment: as above
In short: as §1

S462 [6] = experiment: as above
In short: as §1

ST8814 [7] = experiment: as above
In short: as §1

STS26T [8] = experiment: as above
In short: as §1

YST-1 [9] = experiment: as above
In short: as §1

HS-PSS [10] = experiment: drug sensitivity score (DSS, CellTox-Green cytotoxicity, 72 h) (DSS (dimensionless)); higher = more cytotoxic; extreme values may be limits of the assay
In short: (§2)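 MPNST cell lines and primary human Schwann cells were incubated 72 h at 37 °C in 384-well plates holding five 10-fold compound dilutions. CellTox-Green was added before seeding at a final 1:1000 dilution and reported fluorescence from DNA released by disrupted cells. Signals were scaled to vehicle and positive-control wells, and cultures failing plate quality control were dropped. Drug sensitivity score and relative IC50 come from four-parameter logistic fits, with IC50 censored at the top concentration.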

[11] = tested on: HSC1 (primary human Schwann cells); experiment: as above
In short: as §2

[12] = tested on: HSC2 (primary human Schwann cells); experiment: as above
In short: as §2

S1507-2 [13] = experiment: as above
In short: as §2

ST8814 [14] = experiment: as above
In short: as §2

STS26T [15] = experiment: as above
In short: as §2

HS-PSS [16] = experiment: % inhibition of CellTiter-Glo viability at highest tested concentration (72 h), relative to DMSO and benzethonium chloride controls; higher = more inhibition
In short: as §1

HS-Sch-2 [17] = experiment: as above
In short: as §1

[18] = tested on: HSC1 (primary human Schwann cells); experiment: as above
In short: as §1

[19] = tested on: HSC2 (primary human Schwann cells); experiment: as above
In short: as §1

S1507-2 [20] = experiment: as above
In short: as §1

S462 [21] = experiment: as above
In short: as §1

ST8814 [22] = experiment: as above
In short: as §1

STS26T [23] = experiment: as above
In short: as §1

YST-1 [24] = experiment: as above
In short: as §1

Row | SMILES | drug sensitivity score (HS-PSS [1]) | drug sensitivity score (HS-Sch-2 [2]) | drug sensitivity score [3] | drug sensitivity score [4] | drug sensitivity score (S1507-2 [5]) | drug sensitivity score (S462 [6]) | drug sensitivity score (ST8814 [7]) | drug sensitivity score (STS26T [8]) | drug sensitivity score (YST-1 [9]) | drug sensitivity score (HS-PSS [10]) | drug sensitivity score [11] | drug sensitivity score [12] | drug sensitivity score (S1507-2 [13]) | drug sensitivity score (ST8814 [14]) | drug sensitivity score (STS26T [15]) | % inhibition (HS-PSS [16]) | % inhibition (HS-Sch-2 [17]) | % inhibition [18] | % inhibition [19] | % inhibition (S1507-2 [20]) | % inhibition (S462 [21]) | % inhibition (ST8814 [22]) | % inhibition (STS26T [23]) | % inhibition (YST-1 [24])
1 | CC1(COc2ccc3c(c2)ncn3-c2ccc3cccc(N4CCC(N)CC4)c3n2)COC1 [Crenolanib] (max concentration tested 10000 nM) | 4.89 | 10.5 | 5.48 | 5.95 | 7 ± 2.5 | 5.16 ± 0.26 | 8.29 | 6.09 | 5.36 | 4.69 | 3.33 | 3.85 | 10.4 ± 4.5 | 7.03 | 5.47 | 101% | 101% | 84.7% | 85.3% | 95.6 ± 0.82% | 95.09 ± 0.94% | 95% | 95.3% | 101%
2 | CC(=O)Nc1ccc(C(=O)Nc2ccccc2N)cc1 [Tacedinaline] (max concentration tested 1000 nM) | 0 | 0 | 0 | 0 | 0 | 0 | 0 | 0 | 0 | 0 | 0 | 0 | 0 | 0 | 0 | 0.39% | -2.17% | 6.93% | 0.407% | 2.24 ± 3.5% | 6.18 ± 0.36% | -2.81% | 4.09% | 9.24%
3 | COc1nc(N)nc2c1ncn2[C@@H]1O[C@H](CO)[C@@H](O)[C@@H]1O [Nelarabine] (max concentration tested 10000 nM) | 0 | 0 | 0 | 0 | 1.62 ± 2.3 | 0 | 0 | 0 | 0 | 0 | 0 | 0.0142 | 3.71 ± 5.2 | 0 | 0 | -6.14% | 6.44% | 1.53% | 4.25% | 7.84 ± 7.8% | 8.35 ± 0.2% | -1.03% | 6.48% | -10.9%
4 | CCCCCOC(=O)Nc1nc(=O)n([C@@H]2O[C@H](C)[C@@H](O)[C@H]2O)cc1F [Capecitabine] (max concentration tested 10000 nM) | 0 | 0 | 0 | 0 | 0 | 0 | 0 | 0.0023 | 0 | 0 | 0 | 0 | 0 | 0 | 0 | -4.86% | -4.92% | 1.09% | -3.4% | 5.66 ± 1.9% | -4.78 ± 2.1% | -8.14% | 12% | -6.84%
5 | CCCc1cc(C)[nH]c(=O)c1CNC(=O)c1cc(-c2ccnc(N3CCN(C)CC3)c2)cc2c1cnn2C(C)C [GSK343] (max concentration tested 10000 nM) | 5.59 | 4.46 | 4.34 | 2.64 | 5.498 ± 0.026 | 2.58 ± 1.2 | 5.22 | 3.88 | 1.05 | 5.71 | 0 | 0 | 6.1 ± 1.5 | 5.69 | 6.48 | 94.3% | 95.9% | 47% | 34.4% | 86 ± 10% | 49.6 ± 14% | 94.4% | 84.1% | 33.9%
6 | Cn1cnc(-c2cc3nccc(Oc4ccc(NC(=S)NC(=O)Cc5ccccc5)cc4F)c3s2)c1 [MGCD-265] (max concentration tested 10000 nM) | 2.02 | 2.2 | 0.016 | 0.731 | 4.92 ± 1.6 | 2.93 ± 0.53 | 3.47 | 0 | 0.19 | 0 | 0 | 0.0906 | 3.76 ± 5.3 | 0.0251 | 0 | 23.4% | 29.8% | 11% | 21.3% | 40 ± 2.4% | 40.6 ± 5.4% | 29.8% | 11.4% | 16.1%
7 | Cn1cc(CNCC2CCN(c3ncc(C(=O)NO)cn3)CC2)c2ccccc21 [Quisinostat] (max concentration tested 1000 nM) | 14.7 | 15.7 | 16 | 13.9 | 20.8 ± 1.1 | 20.6 ± 0.34 | 21 | 15.6 | 24.2 | 6.33 | 7.77 | 7.35 | 17.2 ± 0.8 | 13.8 | 9 | 93.3% | 98.6% | 95.9% | 95.7% | 102.2 ± 0.95% | 103.4 ± 0.44% | 102% | 99.4% | 99%
